# Measured values: patent US20090142330A1, “Use of inactive-plasmin to treat chronic inflammatory disease and tumors” (The Government of the United States of America as …, priority 2007, published 2009)
# Tests used:
# [1] = test system: MMP-1 production by monocytes; assay: MMP-1 protein in monocyte conditioned media, Western blot; type: cell-based, human; conditions: for effect on HMW-uPA enhancement of MMP-1 / effect on plasmin enhancement of MMP-1 / effect on LPS-induced MMP-1 production: monocytes preincubated 30 min with agent; for effect on HMW-uPA enhancement of MMP-1: then LPS plus HMW-uPA; for effect on plasmin enhancement of MMP-1: then LPS plus plasmin; for effect on LPS-induced MMP-1 production: then LPS
# From the text: Reagents. High molecular weight urokinase plasminogen activator (HMW-uPA), low molecular weight uPA (LMW-uPA), amino-terminal fragment-uPA (ATF-uPA) and α2-antiplasmin were obtained from American Diagnostica Inc. (Stamford, Conn.). […] LPS Escherichia coli 05:B55 was purchased from Sigma-Aldrich (St. Louis, Mo.). ERK1/2/phospho-ERK1/2 and p38/phospho-p38 antibodies were from Cell Signaling Technology (Beverly, Mass.). MMP-1 antibodies used were rabbit polyclonal antibodies against MMP-1 (provided by Dr. Henning Birkedal-Hansen, NIDCR/NIH) and a mouse anti-human MMP-1 monoclonal antibody (Chemicon International, Inc., Temecula, Calif.). Rabbit anti-COX-2 antibodies were obtained from Cayman Chemical Company (Ann Arbor, Mich.) and mouse anti-β-actin antibodies were from Chemicon International, Inc., Temecula, Calif.). Purification and culture of human monocytes. Human peripheral blood cells were obtained by leukapheresis of non-disease subjects. The monocyte fraction was purified by counter-flow centrifugal elutriation as previously described (Wahl et al., Cell Immunol. 85: 373-383, 1984; and Wahl et al., “In Current Protocols in Immunology,” eds. John Wiley & Sons, Inc. NY. Vol. 2: 7.6A.1-7.6A.10., 2005) and contained greater than 90% monocytes as determined by morphology and flow cytometry. Monocytes were cultured in serum-free Dulbecco Modified Eagle's Medium (DMEM; Cambrex, Walkersville, Md.) supplemented with 2 mM L-glutamine (Mediatech, Herndon, Va.) and 10 μg/ml gentamycin (Cambrex, Walkersville, Md.). Western blot analysis of MMP-1, MAPKs and COX-2. For MMP-1 determination, purified monocytes were cultured at a density of 5×10^6/ml of DMEM in 12 well polystyrene plates (Corning Incorporated Life Sciences, Lowell, Mass.). After 36 to 48 hours of treatment with reagents, the conditioned media were centrifuged and collected. Bovine serum albumin (BSA; 40 μg/ml) was added to the culture supernatants prior to the precipitation of the proteins with cold ethanol (final concentration, 60%) for at least 15 min at −70° C. The proteins were pelleted by microcentrifuging at 20,800×g for 12 min, washed with ethanol, and lyophilized by rotary evaporation. The lyophilized proteins were resuspended in sodium dodecyl sulfate (SDS)-Laemmli buffer [500 mM Tris-HCl (pH 6.8)/10% SDS/0.01% bromophenol-blue/20% glycerol], reduced with 5% β-mercaptoethanol, heated for 4 min at 100° C., and electrophoresed on a 10 or 12% Tris-glycine gel in SDS running buffer [25 mM Tris-HCl (pH 8.3)/192 mM glycine/[…]]. The proteins were transferred onto 0.45 μm nitrocellulose in a buffer containing 25 mM Tris-HCl (pH 8.3)/192 mM glycine/20% methanol and blocked with 50 mM Tris-HCl (pH 7.5)/150 mM NaCl (TBS) containing 5% nonfat dry milk for at least 1 hour. The blots were then incubated overnight with antibodies against MMP-1.
# Western blots for MMP-1, MAPKs and COX-2 were incubated overnight with primary antibodies, washed and analyzed by the addition of Alexa Fluor 680 goat anti-rabbit or Alexa Fluor 750 goat anti-mouse antibodies (Molecular Probes® Inc., Eugene, Oreg.) and the infrared fluorescence detected with the Odyssey infrared imaging system (LI-COR, Lincoln, Nebr.). Densitometry analysis of the bands on the Western blots was determined with the LI-COR software analysis program or the ImageQuant software analysis program (Amersham Biosciences, Piscataway, N.J.).
# annexin A2 on monocytes = target: T1, annexin A2 on monocytes (Homo sapiens, UniProt P07355); assay: Binding of goat anti-human annexin A2 antibodies to monocytes, flow cytometry; conditions: pre-treated with agent 30 minutes; FIG. 6D
# T1 construct: Purified human monocytes were fixed and permeablized; endogenous in cells; host or cells: purified human peripheral blood monocytes, fixed and permeabilized
# Description: (§1) Plasmin activity assay. Plasmin activity was determined with the SPECTROZYME PL kit (American Diagnostica Inc., Stamford, Conn.) which utilizes the chromogenic substrate H-D-norleucyl-hexahydrotyrosol-lysine-para-nitroanilide diacetate. For detection of cell-associated plasmin activity, monocytes were cultured at 1×10^6/well in Hanks Balanced Solution containing calcium and magnesium (Hyclone, Logan, Utah) with the plasmin substrate. Kinetic absorbance readings were measured at 405 nm. RT-PCR. Total cellular RNA was extracted with the RNeasy Mini Kit (QIAGEN® Inc., Valencia, Calif.) 8 hours after stimulation of monocytes with LPS. Transcript levels of MMP-1 were determined using semiquantitative reverse transcriptase-polymerase chain reaction (RT-PCR) with GADPH as an internal control. […] The amplified DNA was separated by 1.7% agarose gel electrophoresis, stained with SYTO 60 red fluorescent nucleic acid stain (Molecular Probes®, Eugene, Oreg.), and the intensity of the stained bands was analyzed with an infrared imaging system. […] FITC-conjugated BSA, plasmin (2.5 μg in 10 μl) or anti-human antibodies (1-2.5 μg/10 μl) then were added, respectively, incubated for 30 min and washed and analyzed by the FACSCalibur system (Becton Dickinson Biosciences, Franklin Lakes, N.J.). […] Flow cytometry results were analyzed by CELLQuest software (Becton Dickinson Biosciences, Franklin Lakes, N.J.). […]
# plasmin = target: T2, plasmin (Homo sapiens, UniProt P00747); assay: Cell free plasmin activity assay (SPECTROZYME PL); type: biochemical; conditions: compared with plasmin alone, FIG. 6B
# T2 construct: purchased Sigma-Aldrich
# Description: as §1
# [2] = target: T3, annexin A2 heterotetramer (annexin A2 p36 / S100A10 p11) on monocytes (Homo sapiens, UniProt P07355+P60903); assay: Binding of FITC-labeled plasmin to monocytes, flow cytometry; conditions: preincubation of monocytes 30 min with agent before plasmin-FITC
# T3 construct: Purified human monocytes were fixed and permeablized; endogenous in cells; host or cells: purified human peripheral blood monocytes, fixed and permeabilized
# Description: as §1
# T1 sequence (P07355 whole entry): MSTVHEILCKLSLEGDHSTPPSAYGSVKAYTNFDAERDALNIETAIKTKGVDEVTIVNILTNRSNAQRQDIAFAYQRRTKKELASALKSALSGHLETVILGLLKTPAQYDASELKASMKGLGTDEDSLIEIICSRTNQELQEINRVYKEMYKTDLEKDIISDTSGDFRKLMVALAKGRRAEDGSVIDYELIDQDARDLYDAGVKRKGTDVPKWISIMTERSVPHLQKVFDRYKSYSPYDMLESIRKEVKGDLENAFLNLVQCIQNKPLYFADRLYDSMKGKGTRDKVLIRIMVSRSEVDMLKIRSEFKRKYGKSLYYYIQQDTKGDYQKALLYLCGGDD
# T3 sequence (P07355 2-339 limits assumed): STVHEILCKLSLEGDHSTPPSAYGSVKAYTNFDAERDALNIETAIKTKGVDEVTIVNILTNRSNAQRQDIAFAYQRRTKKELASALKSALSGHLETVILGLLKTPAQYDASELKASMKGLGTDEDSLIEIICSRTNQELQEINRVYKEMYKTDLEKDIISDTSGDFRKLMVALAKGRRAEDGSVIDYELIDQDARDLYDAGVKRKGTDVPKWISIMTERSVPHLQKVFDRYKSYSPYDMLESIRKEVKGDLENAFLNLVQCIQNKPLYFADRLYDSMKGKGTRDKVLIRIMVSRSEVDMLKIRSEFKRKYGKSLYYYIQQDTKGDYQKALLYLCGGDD
# T3 sequence (P60903 2-97 limits assumed): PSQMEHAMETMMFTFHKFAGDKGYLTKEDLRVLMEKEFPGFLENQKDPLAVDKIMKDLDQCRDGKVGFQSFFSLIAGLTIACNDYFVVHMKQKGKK
binding of antibodies against annexin A2 to monocytes (annexin A2 on monocytes),plasmin activity of inactive plasmin combined with plasmin (plasmin),binding of FITC-labeled plasmin to monocytes [2],Molecule,effect on HMW-uPA enhancement of MMP-1 [1],effect on plasmin enhancement of MMP-1 [1],"restoration of MMP-1 after indomethacin inhibition ([1]; PGE2 1 μM added to indomethacin-treated monocytes, FIG. 4C)",effect on LPS-induced MMP-1 production [1]
–,–,–,COc1cccc(-c2cc(=O)c3ccccc3o2)c1N [PD98059],suppressed the enhancement,suppressed the enhancement,–,–
–,–,–,"CCCCC[C@H](O)/C=C/[C@H]1[C@H](O)CC(=O)[C@@H]1C/C=C\CCCC(=O)O [PGE2, prostaglandin-E2]",–,–,"restored, in part",–
–,–,–,C[S+]([O-])c1ccc(-c2nc(-c3ccncc3)c(-c3ccc(F)cc3)[nH]2)cc1 (stereo not shown) [SB203580],suppressed the enhancement,suppressed the enhancement,–,–
–,–,–,COc1ccc2c(c1)c(CC(=O)O)c(C)n2C(=O)c1ccc(Cl)cc1 [indomethacin],inhibited,inhibited,–,inhibited
blocked the binding,same activity as plasmin alone,blocked the binding,"inactive plasmin: plasmin in which the catalytic site had been irreversibly blocked with a peptide inhibitor; from Molecular Innovations, Inc. (protein) KVYLSECKTGNGKNYRGTMSKTKNGITCQKWSSTSPHRPRFSPATHPSEGLEENYCRNPDNDPQGPWCYTTDPEKRYDYCDILECEEECMHCSGENYDGKISKTMSGLECQAWDSQSPHAHGYIPSKFPNKNLKKNYCRNPDRELRPWCFTTDPNKRWELCDIPRCTTPPPSSGPTYQCLKGTGENYRGNVAVTVSGHTCQHWSAQTPHTHNRTPENFPCKNLDENYCRNPDGKRAPWCHTTNSQVRWEYCKIPSCDSSPVSTEQLAPTAPPELTPVVQDCYHGDGQSYRGTSSTTTTGKKCQSWSSMTPHRHQKTPENYPNAGLTMNYCRNPDADKGPWCFTTDPSVRWEYCNLKKCSGTEASVVAPPPVVLLPDVETPSEEDCMFGNGKGYRGKRATTVTGTPCQDWAAQEPHRHSIFTPETNPRAGLEKNYCRNPDGDVGGPWCYTTNPRKLYDYCDVPQCAAPSFDCGKPQVEPKKCPGRVVGGCVAHPHSWPWQVSLRTRFGMHFCGGTLISPEWVLTAAHCLEKSPRPSSYKVILGAHQEVNLEPHVQEIEVSRLFLEPTRKDIALLKLSSPAVITDKVIPACLPSPNYVVADRTECFITGWGETQGTFGAGLLKEAQLPVIENKVCNRYEFLNGRVQSTELCAGHLAGGTDSCQGDSGGPLVCFEKDKYILQGVTSWGLGCARPNKPGVYVRVSRFVTWIEGVMRNN",–,inhibited the production of MMP-1,–,inhibited the production of MMP-1
